Each structure is given as a SMILES string. Entries after “also recorded” stand apart in the source; their conditions may differ. Where only a bound is given, the exact number is not on record here.

Data on two compounds can be found in patent US10466259B2, “Synthetic antigen compositions for detecting anti-phosphatidylethanolamine antibodies” (Northwestern Univeristy, priority 2015, dated 2019).

Common to all, as to assay type: binding, human
Experiment [1] concerns cofactor-independent aPE IgG. Briefly: ELISA of synthetic PE compositions, cofactor-independent aPE IgG. The method, then: FIG. 15. Head-to-head comparison between egg PE and synthetic 20:4 PE on the ELISA for cofactor-independent aPE IgG reactivity. The 96 well plate was coated with 1 mg of indicated PE per well, OD405 was measured after ELISA and the relative OD value was determined by subtracting the OD value of normal human serum from the patient sample. […] A total 14 patient serums were tested.

Experiment [2] deals with cofactor-independent IgG aPE. Briefly: ELISA with affinity-purified total IgG, cofactor-independent sample. The settings on record: FIG. 18, total IgG 200 μg/ml. The method, then:
(§1) FIG. 18. aPE reactivity to egg PE, 20:4 PE and 18:1 PE using affinity-purified total IgG from a cofactor-dependent and a cofactor-independent IgG aPE patient plasma. For each ELISA test, the total IgG was used at a concentration of 200 μg/ml. […] The values are means of triplicates.
(§2) To minimize uncertainties caused by potential confounding factors in the serum and variations in immunoglobulin contents, the total IgG was isolated from representative aPE patient serum samples and was used to validate ELISA assays.
(§3) Microplates were coated using Egg PE, 20:4 PE or 18:1 PE for IgG aPE ELISA for normal human serum, a representative cofactor-dependent and cofactor-independent patient serum.

Experiment [3] relates to cofactor-dependent IgG aPE. The experiment can be described thus: ELISA with affinity-purified total IgG, cofactor-dependent samples. The method, then:
as §1
The values are means of triplicates.
as §2, §3

Experiment [4] relates to cofactor-independent aPE IgM. Briefly: ELISA of synthetic PE compositions, cofactor-independent aPE IgM. The settings on record: FIG. 9. The method, then:
FIGS. 12A-B. Determination of PE coating amount and its impact on ELISA. A, B. determination of PE coating Amount. The indicated amount of PE was coated on 96 well plate and Elisa was performed. The relative OD405 value was deducted the normal serum value. The error bar represents SEM, n=3. A for egg PE, B for 20% 18:0 PE, 13.3% 18:1 PE, 39.9% 20:4 PE, and 26.6% 22:6 PE.
FIG. 13. A head-to-head comparison on the ELISA performance between egg PE and the synthetic formulation. The ELISA place was coated with 0.5 μg of egg PE or the kit formulation (20% 18:0 PE, 13.3% 18:1 PE, 39.9% 20:4 PE, and 26.6% 22:6 PE). OD405 was measured after ELISA and the relative OD value was subtracted from the normal human serum value. The net value was the mean of triplicates. A total 11 patient serum samples were tested for experiments.
Egg PE is currently the most widely used source of PE in ELISA tests for aPE.

A further experiment deals with cofactor-independent aPE. The experiment can be described thus: aPE ELISA, cofactor-independent patient serum (Example 1). The settings on record: representative patient serum, antigen 1 to 400 μg/ml, FIG. 1. The method, then:
For aPE ELISA assays (ref. 14; herein incorporated by reference in its entirety), microtiter plates (PolySorp, Thermo Fisher, Pittsburgh, USA) were coated with 50 μl of a solution containing various concentrations of egg yolk PE or equal molar amounts of DOPE in ethanol:chloroform (4:1) and dried by evaporation at room temperature (RT) in an extractor shielded from light. Each well was blocked for two hours at RT with 10% BSA in PBS followed by 50 μl of patient serum diluted 1/100 in PBS for one hour at RT. aPEs were assessed by using alkaline phosphatase conjugated polyclonal antibody (Ab) against either human IgG or IgM. The plates were washed three times with PBS after blocking, serum and conjugate incubations. After color development with paranitrophenyl phosphate as substrate, optical density at 405 nm was measured. OD values of pooled normal serum control were subtracted from those of patient serum samples measured with the same PE concentration.
In order to determine the optimal concentration of antigen in aPE ELISA, wells were coated with a series of concentrations of egg yolk PE ranging from 1 to 400 μg/ml aPEs or normal control serum were assessed with alkaline phosphatase conjugated polyclonal Ab to either IgG or IgM. […]

Regarding `CCCCC/C=C\C/C=C\C/C=C\C/C=C\CCCC(=O)OC[C@H](COP(=O)(O)OCCN)OC(=O)CCC/C=C\C/C=C\C/C=C\C/C=C\CCCCC` [20:4 PE, arachidonic PE], in experiment [1] (FIG. 14, representative patient serum sample, 1 mg PE per well), the “OD value relative to egg PE” value is ~14 folds. Further, the “relative ELISA performance against egg PE” value in experiment [1] (FIG. 14, representative patient serum sample, 1 mg PE per well, n=3) is given as “highest OD value”. In addition, the “head-to-head ELISA performance versus egg PE” value in experiment [1] (FIG. 15, 14 patient serum samples, P=0.012) is on record as “out-performed egg PE significantly”. Further, the “improvement of aPE reactivity versus egg PE” value in experiment [1] (FIG. 15, some samples) is ≥ 500%. The “aPE reactivity of purified total IgG” value in experiment [2] is listed as “significant reactivity; also recorded: prefer”; in experiment [3] (FIG. 18, cofactor-dependent sample, total IgG 200 μg/ml) it was “not”; in experiment [3] (FIG. 19, two other cofactor-dependent aPE samples), “not”. Besides, the “ELISA performance compared with egg PE” value in experiment [4] (0.5 mg PE per well, relative OD405 normalized with egg PE, serum from patient J083006H, n=3) was “out-perform egg PE”. Further, the “ELISA performance compared with other single PE species” value in experiment [4] (unsaturated versus saturated, longer versus shorter fatty acid tails) is listed as “better performance”.
As for `CCCCCCCC/C=C\CCCCCCCC(=O)OC[C@H](COP(=O)(O)OCCN)OC(=O)CCCCCCC/C=C\CCCCCCCC` [DOPE, dioleoyl PE], in the experiment on cofactor-independent aPE, the “antigen concentration at which aPE reactivities peaked” value was “around 5 μg/ml”.
